Entries after “also recorded” stand apart in the source; their conditions may differ.
Experiments:
Assay type in all cases: in vivo
[1] = system: codling moth Cydia pomonella; assay: Field trap attraction of codling moth; conditions: traps baited with 10 mg
Procedure: (§1) The compounds eliciting a strong response from antennae of female apple fruit moth and codling moth were then all tested in field traps for attraction of insects. Compounds were applied at a standard dose of 10 mg on red rubber septa, the septa were mounted in Tetra traps with sticky bottoms (Arm et al. 1979).
In a wind tunnel experiment, a blend of farnesol and (E)-beta-farnesene released at 10 ng/min attracted within 2 min 35% of the males tested to the source (N=60).

[2] = system: apple fruit moth Argyresthia conjugella; assay: Field trap attraction of apple fruit moth; conditions: for attraction of apple fruit moth females and males to field traps compared with blank: single compounds, 10 mg on red rubber septa in Tetra traps with sticky bottoms; for relative attractiveness for apple fruit moth among compounds and blends tested: field traps, 10 mg on red rubber septa, males and females
Procedure: as §1
Furthermore, 2-phenyl ethanol was tested in a series of 2-component blends, including all compounds which had shown some attractiveness by themselves.
(§2) Its attractivity can be augmented by blending it with anethole. […] Both sexes of Argyresthia conjugella were attracted. Attraction of females is of importance for monitoring the migration of mated females into orchards. Attraction of females enables population control by mass-trapping, by an attracticide formulation, or by disruption of mating and oviposition behaviour.

other insects = assay: Field trapping experiment, species specificity (other insects); conditions: conditions tested (region, time of season)
Procedure: as §1, §2
Attraction of Argyresthia conjugella to 2-phenyl ethanol has not been reported, and the blend of 2-phenyl ethanol and anethole has not been described to be attractive for any other species.

## CC/C=C\CC1=C(C)CCC1=O [cis-jasmone]
[1]
  attraction of codling moth males to baited traps: attracted in significant numbers

## CC(C)=CCCC(C)=CCCC(C)=CCO [farnesol, Farnesol]
[1]
  attraction of codling moth males to baited traps: attracted in significant numbers

## C=CC(C)(O)CCC=C(C)C (stereo not drawn) [linalool, Linalool]
[2]
  attraction of apple fruit moth females and males to field traps compared with blank: numbers significantly different from blank

## CC=Cc1ccc(OC)cc1 [anethole, Anethole]
[2]; listed as Anethole
  relative attractiveness for apple fruit moth among compounds and blends tested: only a weak attractant
[2]
  attraction of apple fruit moth females and males to field traps compared with blank: numbers significantly different from blank
[1]
  attraction of codling moth males to baited traps: attracted in significant numbers

## OCCc1ccccc1 [2-phenyl ethanol, 2-Phenyl ethanol]
[2]
  relative attractiveness for apple fruit moth among compounds and blends tested: single most attractive compound
  attraction of apple fruit moth females and males to field traps compared with blank: numbers significantly different from blank; also recorded: attractant for both males and females
Other insects
  attraction of insects other than Argyresthia conjugella (species specificity): no other insects were attracted in significant numbers

## COc1ccc(C=O)cc1 [p-anisaldehyde, P-Anisaldehyde]
[2]
  attraction of apple fruit moth females and males to field traps compared with blank: numbers significantly different from blank
[1]
  attraction of codling moth males to baited traps: attracted in significant numbers

## CC/C=C\CCOC(=O)C(C)CC (stereo not drawn) [(Z)3-hexenyl 2-methylbutanoate]
[1]
  attraction of codling moth males to baited traps: attracted in significant numbers
